Laboratory results published in ChEMBL document CHEMBL1201862, “PubChem BioAssay data set” (2004).
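Grown in 96-well plates, cells were treated for 48 hours with each compound at five concentrations. Insufficient inhibition: endpoint recorded as highest concentration tested. GI50 = concentration required for 50% inhibition of growth.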 The source made the active and inactive calls. No stated cut-off is given here; in the data, active = GI50 up to about 1.1 µM and inactive = higher.

Legend:
Experiment in all cases: NCI tumour cell line growth inhibition, 48 h
HOP-92 = system: HOP-92
KM12 = system: KM12
SF-295 = system: SF-295
UACC-257 = system: UACC-257
NCI/ADR-RES = system: NCI/ADR-RES
NCI-H226 = system: NCI-H226
SK-MEL-28 = system: SK-MEL-28
HCT-15 = system: HCT-15
NCI-H522 = system: NCI-H522
A549 = system: A549
NCI-H460 = system: NCI-H460
COLO 205 = system: COLO 205
SK-MEL-5 = system: SK-MEL-5
M14 = system: M14
HCT-116 = system: HCT-116
RXF 393 = system: RXF 393
OVCAR-3 = system: OVCAR-3
MCF7 = system: MCF7
CAKI-1 = system: CAKI-1
HT-29 = system: HT-29

CN(O)C(=O)c1cccc(Cl)c1
GI50 (HOP-92): > 100 µM (inactive) | GI50 (KM12): > 100 µM (inactive) | GI50 (SF-295): > 100 µM (inactive) | GI50 (UACC-257): > 100 µM (inactive) | GI50 (NCI/ADR-RES): > 100 µM (inactive) | GI50 (NCI-H226): > 100 µM (inactive) | GI50 (SK-MEL-28): > 100 µM (inactive) | GI50 (HCT-15): 56.1 µM | GI50 (NCI-H522): > 100 µM (inactive) | GI50 (A549): > 100 µM (inactive) | GI50 (NCI-H460): 95.1 µM (inactive) | GI50 (COLO 205): > 100 µM (inactive) | GI50 (SK-MEL-5): > 100 µM (inactive) | GI50 (M14): > 100 µM (inactive) | GI50 (HCT-116): > 100 µM (inactive) | GI50 (RXF 393): > 100 µM (inactive) | GI50 (OVCAR-3): > 100 µM (inactive) | GI50 (MCF7): > 100 µM (inactive) | GI50 (CAKI-1): > 100 µM (inactive) | GI50 (HT-29): 70.6 µM (inactive)

CCOC(=O)C(C)c1nc2cc(N3CCN(C)CC3)c(F)cc2[nH]c1=O (stereo not given)
GI50 (HOP-92): > 100 µM (inactive) | GI50 (KM12): > 100 µM (inactive) | GI50 (SF-295): > 100 µM (inactive) | GI50 (UACC-257): > 100 µM (inactive) | GI50 (NCI/ADR-RES): > 100 µM (inactive) | GI50 (NCI-H226): > 100 µM (inactive) | GI50 (SK-MEL-28): > 100 µM (inactive) | GI50 (HCT-15): > 100 µM | GI50 (NCI-H522): 40.5 µM (inactive) | GI50 (A549): > 100 µM (inactive) | GI50 (NCI-H460): > 100 µM (inactive) | GI50 (COLO 205): > 100 µM (inactive) | GI50 (SK-MEL-5): > 100 µM (inactive) | GI50 (M14): > 100 µM (inactive) | GI50 (HCT-116): > 100 µM (inactive) | GI50 (RXF 393): > 100 µM (inactive) | GI50 (OVCAR-3): > 100 µM (inactive) | GI50 (MCF7): > 100 µM (inactive) | GI50 (CAKI-1): > 100 µM (inactive) | GI50 (HT-29): > 100 µM (inactive)

O=C(OC1OC2COC(=O)c3cc(O)c(O)c(O)c3-c3c(cc(O)c(O)c3O)C(=O)OC3C2OC(=O)[C@@]24CC(=O)[C@@](O)(OC25C(=O)O[C@H]2[C@@H](O)CO[C@@]25O)C2(O)Oc5c(O)c(O)cc(c5C24)C(=O)OC13)c1cc(O)c(O)c(O)c1 (stereo not given in full)
GI50 (HOP-92): 31.2 µM (inactive) | GI50 (KM12): 18.8 µM (inactive) | GI50 (SF-295): 44 µM (inactive) | GI50 (UACC-257): > 100 µM (inactive) | GI50 (NCI/ADR-RES): 29.2 µM (inactive) | GI50 (NCI-H226): 90.4 µM (inactive) | GI50 (SK-MEL-28): > 100 µM (inactive) | GI50 (HCT-15): 22.9 µM | GI50 (NCI-H522): 19.5 µM (inactive) | GI50 (A549): 27.7 µM (inactive) | GI50 (NCI-H460): 40.9 µM (inactive) | GI50 (COLO 205): 56.4 µM (inactive) | GI50 (SK-MEL-5): 42.7 µM (inactive) | GI50 (M14): 49.3 µM (inactive) | GI50 (HCT-116): 36.9 µM (inactive) | GI50 (RXF 393): > 100 µM (inactive) | GI50 (OVCAR-3): 50 µM (inactive) | GI50 (MCF7): 13.6 µM (inactive) | GI50 (CAKI-1): 12.1 µM (inactive) | GI50 (HT-29): 23.2 µM (inactive)

CC(=O)C1=C(C)N(c2ccccc2)C2(O)C=CC(O)=C3C(=O)c4ccccc4C(=O)C312 (stereo not given)
GI50 (HOP-92): 25.6 µM (inactive) | GI50 (KM12): 13.5 µM (inactive) | GI50 (SF-295): 14.9 µM (inactive) | GI50 (UACC-257): 5.65 µM (inactive) | GI50 (NCI/ADR-RES): 3.36 µM (inactive) | GI50 (NCI-H226): 25.5 µM (inactive) | GI50 (SK-MEL-28): 19 µM (inactive) | GI50 (HCT-15): 6.47 µM | GI50 (NCI-H522): 16.3 µM (inactive) | GI50 (A549): 15.3 µM (inactive) | GI50 (NCI-H460): 8.87 µM (inactive) | GI50 (COLO 205): 6.18 µM (inactive) | GI50 (SK-MEL-5): 10.6 µM (inactive) | GI50 (M14): 20.3 µM (inactive) | GI50 (HCT-116): 8.15 µM (inactive) | GI50 (RXF 393): 11.6 µM (inactive) | GI50 (OVCAR-3): 3.52 µM (inactive) | GI50 (MCF7): 22.3 µM (inactive) | GI50 (CAKI-1): 14.3 µM (inactive) | GI50 (HT-29): 4.7 µM (inactive)

CCN1CCc2sc3nc(S)n(C)c(=O)c3c2C1
GI50 (HOP-92): > 100 µM (inactive) | GI50 (KM12): > 100 µM (inactive) | GI50 (SF-295): > 100 µM (inactive) | GI50 (UACC-257): > 100 µM (inactive) | GI50 (NCI/ADR-RES): > 100 µM (inactive) | GI50 (NCI-H226): > 100 µM (inactive) | GI50 (SK-MEL-28): > 100 µM (inactive) | GI50 (HCT-15): > 100 µM | GI50 (NCI-H522): > 100 µM (inactive) | GI50 (A549): > 100 µM (inactive) | GI50 (NCI-H460): > 100 µM (inactive) | GI50 (COLO 205): > 100 µM (inactive) | GI50 (SK-MEL-5): > 100 µM (inactive) | GI50 (M14): > 100 µM (inactive) | GI50 (HCT-116): > 100 µM (inactive) | GI50 (RXF 393): > 100 µM (inactive) | GI50 (OVCAR-3): > 100 µM (inactive) | GI50 (MCF7): > 100 µM (inactive) | GI50 (CAKI-1): > 100 µM (inactive) | GI50 (HT-29): > 100 µM (inactive)

COc1cc(NS(C)(=O)=O)ccc1NCc1c[nH]c2ccc3ncccc3c12
GI50 (HOP-92): 33 µM (inactive) | GI50 (KM12): 17.1 µM (inactive) | GI50 (SF-295): 18.5 µM (inactive) | GI50 (UACC-257): 17 µM (inactive) | GI50 (NCI/ADR-RES): 20.3 µM (inactive) | GI50 (NCI-H226): 12.3 µM (inactive) | GI50 (SK-MEL-28): 23.1 µM (inactive) | GI50 (HCT-15): 21.7 µM | GI50 (NCI-H522): 14.2 µM (inactive) | GI50 (A549): 27.8 µM (inactive) | GI50 (NCI-H460): 18.2 µM (inactive) | GI50 (COLO 205): 15.6 µM (inactive) | GI50 (SK-MEL-5): 12.4 µM (inactive) | GI50 (M14): 16.3 µM (inactive) | GI50 (HCT-116): 21.2 µM (inactive) | GI50 (RXF 393): 5.55 µM (inactive) | GI50 (OVCAR-3): 23.2 µM (inactive) | GI50 (MCF7): 19.4 µM (inactive) | GI50 (CAKI-1): 22.4 µM (inactive) | GI50 (HT-29): 23.2 µM (inactive)

CCOC(=O)C12CCC(c3c(C)cccc3C)(O1)C(C(=O)OC)=C2C(=O)OC (stereo not given)
GI50 (HOP-92): 4.24 µM (inactive) | GI50 (KM12): 4.28 µM (inactive) | GI50 (SF-295): 5.45 µM (inactive) | GI50 (UACC-257): 2.58 µM (inactive) | GI50 (NCI/ADR-RES): > 9.25 µM (inactive) | GI50 (NCI-H226): 5.52 µM (inactive) | GI50 (SK-MEL-28): > 7.5 µM (inactive) | GI50 (HCT-15): 4.69 µM | GI50 (NCI-H522): 5.38 µM (inactive) | GI50 (A549): 3.62 µM (inactive) | GI50 (NCI-H460): 2.23 µM (inactive) | GI50 (COLO 205): 1.87 µM (inactive) | GI50 (SK-MEL-5): 0.668 µM (active) | GI50 (M14): 2.69 µM (inactive) | GI50 (HCT-116): 2.14 µM (inactive) | GI50 (RXF 393): 4.71 µM (inactive) | GI50 (OVCAR-3): 0.889 µM (active) | GI50 (MCF7): 1.3 µM (inactive) | GI50 (CAKI-1): > 5.6 µM (inactive) | GI50 (HT-29): 0.748 µM (active)

O=C1CS[C@@](CC(c2ccc(Cl)cc2)c2ccc(Cl)cc2)(c2ccc(Cl)cc2)N1
GI50 (HOP-92): 15.3 µM (inactive) | GI50 (KM12): 13.4 µM (inactive) | GI50 (SF-295): 5.08 µM (inactive) | GI50 (UACC-257): 14.3 µM (inactive) | GI50 (NCI/ADR-RES): 8.17 µM (inactive) | GI50 (NCI-H226): 9.75 µM (inactive) | GI50 (SK-MEL-28): 43 µM (inactive) | GI50 (HCT-15): 10.8 µM | GI50 (NCI-H522): 6.28 µM (inactive) | GI50 (A549): 5.97 µM (inactive) | GI50 (NCI-H460): 9.1 µM (inactive) | GI50 (COLO 205): 4.74 µM (inactive) | GI50 (SK-MEL-5): 12.6 µM (inactive) | GI50 (M14): 11.8 µM (inactive) | GI50 (HCT-116): 9.59 µM (inactive) | GI50 (RXF 393): 3.56 µM (inactive) | GI50 (OVCAR-3): 6.21 µM (inactive) | GI50 (MCF7): 4.18 µM (inactive) | GI50 (CAKI-1): 19.2 µM (inactive) | GI50 (HT-29): 9.55 µM (inactive)

Clc1ccc(Cn2cc(/C=N/n3cnnc3)c3ccccc32)cc1
GI50 (HOP-92): 14.6 µM (inactive) | GI50 (KM12): 70.3 µM (inactive) | GI50 (SF-295): 33.3 µM (inactive) | GI50 (UACC-257): 46.5 µM (inactive) | GI50 (NCI/ADR-RES): 35 µM (inactive) | GI50 (NCI-H226): 1.1 µM (active) | GI50 (SK-MEL-28): > 100 µM (inactive) | GI50 (HCT-15): 60.1 µM | GI50 (NCI-H522): 23.2 µM (inactive) | GI50 (A549): 41.8 µM (inactive) | GI50 (NCI-H460): 11.1 µM (inactive) | GI50 (COLO 205): 18.5 µM (inactive) | GI50 (SK-MEL-5): 19.5 µM (inactive) | GI50 (M14): 57 µM (inactive) | GI50 (HCT-116): 31.8 µM (inactive) | GI50 (RXF 393): 16.4 µM (inactive) | GI50 (OVCAR-3): 86.5 µM (inactive) | GI50 (MCF7): 28.4 µM (inactive) | GI50 (CAKI-1): 21.5 µM (inactive) | GI50 (HT-29): > 100 µM (inactive)
